The source of these data is patent publication US8183374B2, “Piperidine and piperazine derivatives” (M's Science Corporation, priority 2006, dated 2012).

One series has as its target T1, σ1 receptors (Homo sapiens, UniProt Q99720).
T1 construct: endogenous in cells; host or cells: HEK-293 cell membranes
In words: σ1 receptor binding assay. The settings on record: HEK-293 cell membranes, 10 nM (+)-[3H]-pentazocine, 120 min at 37° C. The protocol:
Sigma-1 (σ1) and sigma-2 (σ2) receptor binding assays are carried out in membranes from HEK-293 (Human Embryonic Kidney) cells.
Confluent HEK-293 cells are harvested in PBS/5 mM EDTA. They are centrifuged at 2000 rpm for 5 min and then washed two times in PBS. Cells are homogenized in 20 mM Tris-HCL (pH=7.5) containing 5 mM EDTA, 0.5 mM PMSF and 0.5 μg/mL leupeptin using a Dounce homogenizer and sonicated for 5 minutes.
Nuclear debris and intact cells are removed by centrifugation at 3000 rpm for 10 minutes at 4° C. […]
Proteins are determined using the Bio Rad Protein Assay Dye Reagent and the membranes are aliquoted and frozen at −80° C. […]
Total binding is determined by incubating 50 μg of HEK-293 cell membranes with 10 nM (+)−[^3H]-pentazocine (Perkin-Elmer, 35 Ci/mmol) and assay buffer (50 mM Tris-HCl, pH=8.3) in a total volume of 200 μl. Non specific binding is determined in the presence of 10 μM unlabeled pentazocine. […] The filters are washed three times and the membrane-bound radioactivity is determined in a Microbeta scintillation counter. […]
Specific binding is determined by subtraction of non specific binding from total binding. […]

Another series relates to rats. The settings on record: microinjection/injection in rats; cited from earlier work.

T1 sequence (Q99720 whole entry): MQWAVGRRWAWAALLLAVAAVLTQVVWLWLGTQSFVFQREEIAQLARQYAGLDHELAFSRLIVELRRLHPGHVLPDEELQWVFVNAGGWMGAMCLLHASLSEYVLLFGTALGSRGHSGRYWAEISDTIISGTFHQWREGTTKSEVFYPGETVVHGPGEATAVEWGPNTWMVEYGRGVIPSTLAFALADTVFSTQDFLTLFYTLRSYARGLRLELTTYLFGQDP

Turning to `COc1cc(CCC(=O)N2CCN(CCOc3ccc(F)cc3)CC2)cc(OC)c1OC.Cl` [Example 35, 1-{4-[2-(4-Fluorophenoxy)Ethyl]Piperazin-1-yl}-3-(3,4,5-Trimethoxy-Phenyl)Propan-1-One Hydrochloride], at σ1 receptors, the “IC50 in the σ1 receptor binding assay” value was “a little less active”.
Same read-out and setting: as for `COc1cc(CC(=O)N2CCN(CCOc3ccccc3F)CC2)cc(OC)c1OC.Cl` [Example 41, 1-{4-[2-(2-Fluorophenoxy)Ethyl]Piperazin-1-yl}-2-(3,4,5-Trimethoxy-Phenyl)Ethanone Hydrochloride], the entry is “a little less active”.
Take `Cc1ccccc1NC(=N)Nc1ccccc1C` [DTG, 1,3-di-2-tolyl-guanidine]: in the series on rats, the “neck dystonia in rats” value is on record as “induced neck dystonia”.
Regarding `COc1ccc(CCN2CCN(CCCc3ccccc3)CC2)cc1OC` [SA-4503, 1-[2-(3,4-dimethoxyphenyl)ethyl]-4-(3-phenylpropyl)piperazine], the “neck dystonia in rats” value with rats is given as “had no effect”.
